pIC50: −log10 of the molar value.
Test system: A375 multi-cell spheroids with HUVEC/MSC, viability
Test: Anticancer human tumor A375 cell line growth inhibition [GQUAD];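 further: spheroids exposed to compounds for seven days before readout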
Conditions: for pIC50: curve of first compound; for viability, T/C: stronger effect = lower value
Source text: DNA G-quadruplex Stabilizer Agents in Combinations in Complex Spheroids
A high-throughput screen of multi-cell type tumor spheroids was designed to identify active combinations of DNA G-quadruplex stabilizer agents and targeted small molecules. Complex spheroids include a stromal component modeled by human endothelial cells (HUVEC) and fibroblasts modeled by human mesenchymal stem cells (MSCs). The concentration ranges selected for each drug and investigational agent were based upon clinically achievable concentrations if the clinical Cmax of the agent was known.
Compounds. The drugs and investigational agents: pidnarulex (CX-5461; NSC782164), APTO-253 (NSC789042), BRACO-19 (NSC847499), peposertib (NSC802822), ceralasertib (NSC780249), elimusertib (NSC800525), camonsertib (NSC841442), AZD-1390 (NSC803789), olaparib (NSC753686), talazoparib (NSC767125), ART-558 (NSC835418), sotorasib (NSC818433), MRTX-1133 (NSC836407), SN-38 (NSC673596), topotecan (NSC609699), etoposide (NSC141540), doxorubicin (NSC123127), gemcitabine (NSC613327), 5-fluorouracil (NSC19893), paclitaxel (NSC125973), vemurafenib (NSC761431), panobinostat (NSC761190), R-306465 (JNJ-16241199; NSC773264), adavosertib (NSC754352), TP-3654 (NSC805149), carboplatin (NSC241240), KSQ-4279 (NSC840948), and staurosporine (NSC755774) were obtained from the National Cancer Institute (NCI) Developmental Therapeutics Program Chemical Repository (34). The FDA-approved anticancer drug set is available from the NCI Developmental Therapeutics Program. […] The stock solutions were prepared in dimethyl sulfoxide (DMSO, Sigma-Aldrich, St. Louis, MO, cat. D2650) at 800-fold the tested concentration and stored at -70 degrees C prior to their use. All drugs and investigational agents were tested over a range starting from a high concentration at or near the clinical Cmax and decreasing in half-log increments. If the clinical Cmax for an agent had not been determined, the highest concentration tested was 10 microM.
2.3 Cell Culture. All cells were maintained in an incubator at 37 degrees C and 5% CO2 with 95% humidity. The PDC lines were cultured according to standard operating procedures established by the NCI PDMR. All PDCs were thawed and cultured in Matrigel-coated flasks prepared with a working solution of 1X Ham's F-12 nutrient mix, without supplementation (Invitrogen, cat. 11765054), 100 U/mL penicillin-streptomycin (Invitrogen, cat. 15140122), and 2.5% Matrigel (Corning Inc., cat. 354248) for the first three passages. The 857933-349-R-J2-PDC line was cultured in 6C/Colon 1B media, which includes advanced DMEM/F-12 (Thermo Fisher Scientific, cat. 12634028), 10 mM HEPES (Thermo Fisher Scientific, cat. 15630080), 1X GlutaMAX supplement (Thermo Fisher Scientific, cat. 35050061), 0.1 mg/mL primocin (InvivoGen, cat. ant-pm-2), 10% defined fetal bovine serum, heat inactivated (HyClone Laboratories Inc., cat. SH30070.03HI), 50% L-WRN conditioned media (ATCC, cat. CRL-3276), 1.25 mM N-Acetyl-L-cysteine (Sigma-Aldrich, cat. A9165), 10 mM nicotinamide (Sigma-Aldrich, cat. N0636), 1X B-27 supplement (Thermo Fisher Scientific, cat. 17504044), 1X N-2 supplement (Thermo Fisher Scientific, cat. 17502048), 10 microM Y-27632 dihydrochloride (Tocris Bioscience, cat. 1254), and 50 ng/mL human EGF recombinant protein (Thermo Fisher Scientific, cat. PHG0311). The 485176-168-R4-J1-PDC line was cultured in Panc media, which includes all 6C/Colon 1B media components plus 100 ng/mL human FGF-10 (Thermo Fisher Scientific, cat. 100-26), 500 nM SB-431542 (Selleckchem, cat. S1067), and gastrin (Tocris, cat. 3006).
[…]

`O=C(NO)c1cnc(N2CCN(S(=O)(=O)c3ccc4ccccc4c3)CC2)nc1` + Cc1cnc(CNC(=O)c2c(=O)c3ccc(N4CCCN(C)CC4)nc3n3c2sc2ccccc23)cn1 was tested, and the pIC50 (second compound 0.0316 µM) was 6.68, the pIC50 (second compound 0.1 µM) was 6.91 and the pIC50 (second compound 0.316 µM) was 6.96. For the same molecule, the pIC50 (second compound 1 µM) was over 7.50, the pIC50 (second compound 3.16 µM) was over 7.50 and the pIC50 (second compound 10 µM) was over 7.50. For the same molecule, the viability, T/C (second compound 0.0316 µM, first compound 0.0316 µM) was 115%, the viability, T/C (second compound 0.0316 µM, first compound 0.1 µM) was 124% and the viability, T/C (second compound 0.0316 µM, first compound 0.316 µM) was 11.9%. The viability, T/C (second compound 0.0316 µM, first compound 1 µM) was 0.22%, the viability, T/C (second compound 0.0316 µM, first compound 3.16 µM) was 0.16% and the viability, T/C (second compound 0.0316 µM, first compound 10 µM) was 0.19%. It also gave a viability, T/C (second compound 0.1 µM, first compound 0.0316 µM) of 75.2%, a viability, T/C (second compound 0.1 µM, first compound 0.1 µM) of 59.1% and a viability, T/C (second compound 0.1 µM, first compound 0.316 µM) of 10.8%. It also gave a viability, T/C (second compound 0.1 µM, first compound 1 µM) of 0.18%, a viability, T/C (second compound 0.1 µM, first compound 3.16 µM) of 0.13% and a viability, T/C (second compound 0.1 µM, first compound 10 µM) of 0.17%. It also gave a viability, T/C (second compound 0.316 µM, first compound 0.0316 µM) of 64.1%, a viability, T/C (second compound 0.316 µM, first compound 0.1 µM) of 53.2% and a viability, T/C (second compound 0.316 µM, first compound 0.316 µM) of 9.31%. For the same molecule, the viability, T/C (second compound 0.316 µM, first compound 1 µM) was 0.13%, the viability, T/C (second compound 0.316 µM, first compound 3.16 µM) was 0.11% and the viability, T/C (second compound 0.316 µM, first compound 10 µM) was 0.14%. It also gave a viability, T/C (second compound 1 µM, first compound 0.0316 µM) of 44.6%, a viability, T/C (second compound 1 µM, first compound 0.1 µM) of 36.8% and a viability, T/C (second compound 1 µM, first compound 0.316 µM) of 0.9%. The viability, T/C (second compound 1 µM, first compound 1 µM) was 0.11%, the viability, T/C (second compound 1 µM, first compound 3.16 µM) was 0.09% and the viability, T/C (second compound 1 µM, first compound 10 µM) was 0.12%. For the same molecule, the viability, T/C (second compound 3.16 µM, first compound 0.0316 µM) was 32.8%, the viability, T/C (second compound 3.16 µM, first compound 0.1 µM) was 23.3% and the viability, T/C (second compound 3.16 µM, first compound 0.316 µM) was 0.17%. The viability, T/C (second compound 3.16 µM, first compound 1 µM) was 0.11%, the viability, T/C (second compound 3.16 µM, first compound 3.16 µM) was 0.11% and the viability, T/C (second compound 3.16 µM, first compound 10 µM) was 0.15%. The viability, T/C (second compound 10 µM, first compound 0.0316 µM) was 28.5%, the viability, T/C (second compound 10 µM, first compound 0.1 µM) was 22.6% and the viability, T/C (second compound 10 µM, first compound 0.316 µM) was 0.2%. The viability, T/C (second compound 10 µM, first compound 1 µM) was 0.12%, the viability, T/C (second compound 10 µM, first compound 3.16 µM) was 0.18% and the viability, T/C (second compound 10 µM, first compound 10 µM) was 0.21%.
